Measured values as given in publication PMC8218635, “Structural Insights into the Mechanisms of Action of Functionally Distinct Classes of Chikungunya Virus Nonstructural Protein 1 Inhibitors” (Antimicrobial Agents and Chemotherapy, 2021).
Like-named read-outs stand apart in the source and are kept apart here.

Tests used:
wt SFV nsP1 [1] = biological target: T1, wt SFV nsP1 (Semliki forest virus, UniProt P08411); design: method as in PMID 31964798; conditions: cited from earlier work
T1 sequence (P08411 1-537 limits assumed): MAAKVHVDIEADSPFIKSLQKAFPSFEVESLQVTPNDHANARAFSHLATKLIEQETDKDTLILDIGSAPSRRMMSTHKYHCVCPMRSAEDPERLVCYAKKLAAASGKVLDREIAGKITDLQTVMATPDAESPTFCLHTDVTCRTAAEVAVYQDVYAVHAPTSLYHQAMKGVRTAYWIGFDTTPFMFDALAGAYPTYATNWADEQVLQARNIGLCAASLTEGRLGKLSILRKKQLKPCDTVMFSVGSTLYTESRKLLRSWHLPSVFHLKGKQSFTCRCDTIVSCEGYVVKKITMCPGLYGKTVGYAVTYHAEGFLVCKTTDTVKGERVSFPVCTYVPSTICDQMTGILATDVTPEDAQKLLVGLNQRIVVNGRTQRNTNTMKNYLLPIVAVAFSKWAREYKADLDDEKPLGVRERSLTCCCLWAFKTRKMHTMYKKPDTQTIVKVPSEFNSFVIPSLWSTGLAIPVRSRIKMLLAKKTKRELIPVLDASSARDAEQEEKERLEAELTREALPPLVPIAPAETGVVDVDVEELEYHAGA

SFV = assay: microbe, parasite or virus in culture; assay type: cell-based; conditions: multicycle CPE reduction assay, Vero E6 cells, NA = not active
rCHIKV S454G + W456R = assay type: cell-based, Chikungunya virus; conditions: for Fold resistance, rCHIKV S454G + W456R: (EC50 for the variant)/(EC50 for the wt); for EC50: CPE reduction assay, Vero E6 cells; for Sensitivity or resistance of CHIKV nsP1-S454G+W456R to the compound: at the doses tested, Fig. 2
rCHIKV G230R + K299E = assay type: cell-based, Chikungunya virus; conditions: for Fold resistance, rCHIKV G230R + K299E: (EC50 for the variant)/(EC50 for the wt); for EC50: CPE reduction assay, Vero E6 cells; for Sensitivity or resistance of CHIKV nsP1-G230R+K299E to the compound: Fig. 2
CHIKV = assay: microbe, parasite or virus in culture; assay type: cell-based
rCHIKV P34S = assay type: cell-based, Chikungunya virus; conditions: for Fold resistance, rCHIKV P34S: (EC50 for the variant)/(EC50 for the wt); for EC50: CPE reduction assay, Vero E6 cells; for Sensitivity or resistance of CHIKV nsP1-P34S to the compound: at the concentrations tested, Fig. 2
SINV = test system: SINV; design: method as in PMID 31964798; conditions: cited from earlier work
wt SFV nsP1 [2] = biological target: T1, wt SFV nsP1; assay type: biochemical; conditions: for Inhibition of formation of the covalent [32P]m7GMP-nsP1 complex: wt SFV nsP1, 100 μM SAM, inhibitor 50 μM to 1 mM, Fig. 3A
in vitro = conditions: African green monkey
VEEV nsP1 = conditions: cited from earlier work
wt CHIKV nsP1 = wt CHIKV nsP1 (Chikungunya virus, UniProt Q8JUX6); assay type: biochemical; conditions: wt CHIKV nsP1, 10 μM SAM; for Inhibition of formation of the covalent [32P]m7GMP-nsP1 intermediate: inhibitor 0.5 to 32 μM, Fig. 3C
CHIKV nsP1 = conditions: enzymatic assays measuring either MTase or GTase activity; cited from earlier work
[3] = Chikungunya virus, Vero C1008, read-out: EC50 for wt CHIKV, Table 2, wt CHIKV, CPE reduction assay, Vero E6 cells
[4] = Chikungunya virus, Vero C1008, 96 h, read-out: EC50, concentration that reduces virus-induced CPE by 50%, CHIKV, multicycle CPE reduction assay, Vero E6 cells, 96 h

Compound | Fold resistance, rCHIKV S454G + W456R (rCHIKV S454G + W456R) | Fold resistance, rCHIKV G230R + K299E (rCHIKV G230R + K299E) | EC50 (rCHIKV G230R + K299E) | Sensitivity or resistance of CHIKV nsP1-G230R+K299E to the compound (rCHIKV G230R + K299E) | Fold resistance, rCHIKV P34S (rCHIKV P34S) | EC50 (rCHIKV P34S) | EC50 (rCHIKV S454G + W456R) | Sensitivity or resistance of CHIKV nsP1-S454G+W456R to the compound (rCHIKV S454G + W456R) | EC50 (CHIKV; [3]) | Sensitivity or resistance of CHIKV nsP1-P34S to the compound (rCHIKV P34S) | Inhibition of formation of the covalent [32P]m7GMP-nsP1 complex (wt SFV nsP1 [2]) | CC50 (in vitro) | EC50 (CHIKV; [4]) | Inhibition of formation of the covalent [32P]m7GMP-nsP1 intermediate (wt CHIKV nsP1) | CC50 (Vero E6 cells; African green monkey) | also measured
Nc1ncnc2c1ncn2C1C(F)=C(CCO)C(=O)C1O (stereo not drawn) [3′-Keto form of FHNA] | – | – | – | – | – | – | – | – | – | – | – | – | – | – | – | Inhibition of formation of the covalent [32P]m7GMP-nsP1 intermediate (wt SFV nsP1 [1]; wt SFV nsP1): only partially inhibited
6′-β-Fluoro-homoaristeromycin [FHA] | 1 | 14.3 | > 10 µM | resistant | 2.3 | 1.6 ± 0.2 µM | – | – | – | – | – | – | – | – | – | EC50 (SFV; 32 h): 3.9 ± 3.5 µM; EC50 (CHIKV; CHIKV, multicycle CPE reduction assay, Vero E6 cells, 96 h, read-out: EC50, concentration that reduces virus-induced CPE by 50%): 0.7 ± 0.08 µM; EC50 (CHIKV; Table 2, wt CHIKV, CPE reduction assay, Vero E6 cells, read-out: EC50 for wt CHIKV): 0.7 ± 0.08 µM; Activity against SINV (SINV): inactive; CC50 (Vero E6 cells): > 250 µM
CNc1ncnc2c1ncn2C1C(O)C(O)C(CCO)C1F (stereo not drawn) [FMA, 6′-β-fluoro-N^6-methyladenosine] | – | – | – | – | – | – | – | – | – | – | – | – | – | – | – | Activity in CHIKV CPE reduction assays (CHIKV; source of the data not stated): inactive
NC(=O)c1nc(F)c[nH]c1=O [Favipiravir, reference compound] | 1.1 | 1.7 | 135 ± 5 µM | sensitive | 1.2 | 95.9 ± 12.8 µM | 89.5 ± 0.2 µM | sensitive | 79.8 ± 1.4 µM | sensitive | – | – | – | – | – | –
CCNc1nc(C)cc(N2CCN(C(=O)c3ccc(C)cc3)CC2)n1 [CHVB-066] | 20.8 | <1 | 0.3 ± 0.04 µM | – | 20.8 | > 12.5 µM | > 12.5 µM | – | 0.6 ± 0.1 µM | completely resistant | completely blocked | 25 µM | < 1 µM | in a dose-dependent manner | – | Inhibition of GTase activity of VEEV nsP1 (VEEV nsP1): inhibit the GTase activity
CCNc1nc(C)cc(N2CCN(C(=O)c3ccc(F)cc3)CC2)n1 [CHVB-032] | 29.4 | 1 | 3.4 ± 0.2 µM | – | 14.4 | 52.4 ± 0.8 µM | > 100 µM | completely resistant | 3.4 ± 0.3 µM | – | completely blocked | > 100 µM | 3.4 ± 0.3 µM | in a dose-dependent manner | > 100 µM | –
CCC1=NC2C(N=NN2c2cccc(OC(C)C)c2)C(=O)N1 (stereo not drawn) [MADTP-372] | 9.3 | <1 | 1.2 ± 0.2 µM | – | 9.3 | > 25 µM | > 25 µM | cross-resistant | 2.7 ± 0.2 µM | completely resistant | less effectively | > 100 µM | 2.7 ± 0.2 µM | in a dose-dependent manner | > 100 µM | Inhibition of GTase activity of VEEV nsP1 (VEEV nsP1): inhibit the GTase activity
Nc1ncnc2c1ncn2[C@@H]1O[C@H](C[C@@H](N)CC[C@H](N)C(=O)O)[C@@H](O)[C@H]1O [Sinefungin, reference compound] | <1 | 1.5 | 274.5 ± 0.2 µM | sensitive | <1 | 151 ± 2.5 µM | 110 ± 3.9 µM | sensitive | 185 ± 38.4 µM | sensitive | very inefficient inhibitor | > 1000 µM | 185 ± 38.4 µM | – | > 1000 µM | Effect on GTase activity in reactions lacking SAM (wt SFV nsP1 [2]; wt SFV nsP1, 50 μM sinefungin, no SAM, Fig. 3B): appeared to stimulate GTase activity; Inhibition of CHIKV nsP1 (CHIKV nsP1): inhibits; Inhibition of VEEV nsP1 (VEEV nsP1): inhibits; Reduction of the [32P]m7GMP-nsP1 signal (wt CHIKV nsP1; 1 mM compound, Fig. 3D): reduced the signal slightly; Reduction of the [32P]m7GMP-nsP1 signal (wt CHIKV nsP1; 125 to 500 μM compound, Fig. 3D): did not lead to any reduction in the signal
Nc1ncnc2c1ncn2C1C(F)=C(CCO)C(O)C1O (stereo not drawn) [FHNA, 6′-fluoro-homoneplanocin A] | 1 | 8.6 | > 10 µM | resistant | 2.4 | 2.8 ± 0.3 µM | 1.2 ± 0.1 µM | – | 1.2 ± 0.03 µM | – | – | > 250 µM | 1.2 ± 0.03 µM | – | > 250 µM | EC50 (SFV; Semliki Forest virus, Vero C1008, 32 h): 3.9 to 5.2 µM; EC50 (SFV; 32 h): 5.2 ± 3.2 µM; Inhibition of formation of the covalent [32P]m7GMP-nsP1 intermediate (wt SFV nsP1 [1]; modified SFV nsP1 assay lacking DTT, not shown): to a lesser extent; Activity against SINV (SINV): inactive; Reduction of the [32P]m7GMP-nsP1 signal (wt CHIKV nsP1; with or without DTT, 12.5 to 500 μM compound, Fig. 3E): no reduction in the signal
